Measured values reported in patent US20260023070A1, “OPTOGENETIC ALPHA-SYNUCLEIN AGGREGATION SYSTEM-BASED COMPOUND SCREENING PLATFORM IN PD-hiPSC-mDA NEURONS” (The Johns Hopkins University, priority 2022, published 2026).

Legend:
[1] = system: opto-α-syn PD hiPSC-derived mDA neurons; experiment: Light-induced α-syn aggregation and neurotoxicity in opto-α-syn PD hiPSC-derived mDA neurons; type: cell-based, human; settings: blue light 7 days; compared to DMSO control; significant at 1 and 10 nM CDC, 10 and 100 nM BAG
Procedure: Whether these potential hit compounds can inhibit α-syn aggregation and rescue aggregation-induced neuronal toxicity was tested on PD hiPSC-derived mDA neurons. The top 5 ranked small compounds in FIGURE SE were selected and these compounds to were used to treat opto-α-syn PD hiPSC-derived mDA neurons at three different concentrations (1 nM, 10 nM, 100 nM) with blue light stimulation. […] Overall, the two compounds were finally selected among the potential hit drugs from our novel opto-α-syn neuronal cell model-based primary screening (FIG. 11D), and they considerably rescued neuronal cell death from aggregation-induced TH^+ mDA neuron-selective toxicity in PD-iPSC derived neurons. To identify possible molecules involved in this compound-mediated recovery of TH^+ mDA neurons, RNA-sequencing (RNA-seq) analysis was performed with four different samples (dark condition with DMSO, blue light stimulation with DMSO, blue light stimulation with BAG treatment, and blue light stimulation with CDC treatment). To find BAG- or CDC-responsive genes, differentially expressed genes (DEGs) of DMSO-treated samples upon blue light stimulation were first extracted, and then the DEGs were filtered with criteria of which became non-DEGs in response to CDC or BAG treatment. […]
The effect of 5 selected compounds on opto-α-syn-expressing PD hiPSC-derived mDA neurons was evaluated. […]

[2] = system: mouse primary neurons treated with α-syn PFF; experiment: α-syn PFF model in mouse primary neurons (TX-insoluble pathologic α-syn); type: cell-based
Procedure: To validate the effects of these two compounds on the OASIS-independent model, α-syn PFF were treated with mouse primary neurons and non-OASIS-human PD hiPSC-derived mDA neurons with CDC 021 and BAG 956.

opto-α-syn-MOs = experiment: Autophagy in opto-α-syn-MOs kept in dark after blue light illumination; type: cell-based, human; settings: treatment only during dark condition after blue light illumination for six days
Procedure: Because autophagy can be activated by the inhibition of PI 3-kinase (PI3K) or the PDK1 pathway, it was tested whether treatment with BAG 956 can induce the autophagic flux to decrease α-syn aggregates in opto-α-syn mDA neurons and MOs.

α-syn PFF injected mice [3] = experiment: In vivo intrastriatal α-syn PFF mouse model, oral BAG 956 (behaviour, histology, biochemistry)
Procedure: To test the neuroprotective potential of BAG 956, in vivo α-syn PFF mouse model was used for a short-term period. […] Next, BAG 956 efficacy was validated for long-term treatment on α-syn PFF mouse model by comprehensive behavioral and biochemical assays. Behavioral analysis was performed to evaluate the behavioral defect elicited by intrastriatal α-syn PFF injection and any restoration of behavioral dysfunction by oral administration of BAG 956 for 6 months at a low (2 mg/kg) or high (10 mg/kg) concentration after one-month recovery from α-syn PFF injection. PBS injected mice were treated vehicle or BAG956^high (10 mg/kg), whereas α-syn PFF injected mice were orally administered with vehicle, BAG 956^low (2 mg/kg), or BAG956^high (10 mg/kg) (FIG. 13A). […] The open field test (OFT) and elevated plus maze (EPM) were performed to evaluate locomotion, exploration, and anxiety behaviors. […] Next, hippocampal- or amygdala-dependent learning and memory based contextual or cued fear conditioning tests were performed. […] To examine whether the oral administration of BAG 956 could rescue the loss of DA neurons induced by intrastriatal α-syn PFF injection, the number of TH-positive neurons in the substantia nigra pars compacta (SNpc) was measured via an unbiased stereological counting analysis.

α-syn PFF injected mice [4] = experiment: as above; settings: short-term: two months at 2 mg/kg or one month at 10 mg/kg after intrastriatal α-syn PFF injection
[5] = system: tau PFF treated mouse cortical neurons; experiment: tau PFF treated mouse cortical neurons, p-Tau western blot; type: cell-based
Procedure: It was tested whether the BAG956 compound can be beneficial in other proteinopathy models. The BAG and CDC compounds were used on the tau PFF treated mouse […] neurons (FIGS. 15A-15D) and measured expression levels with three different phosphorylated-Tau (p-Tau) antibodies.

[6] = oral, 6 months, both 2 mg/kg and 10 mg/kg

Question: With `Cc1nc2cnc3ccc(C#Cc4cccnc4)cc3c2n1-c1ccc(C(C)(C)C#N)cc1` [BAG 956] as the compound, how does the “survival rate of TH+ mDA neurons” value [1] read?
Answer: Its value is “significant increase”.

Question: And the “pathologic α-syn in the Triton X-100 (TX)-insoluble fraction” value [2]?
Answer: The value was “significantly reduced”.

Question: What about the “LC3+ puncta and LC3+/5G4+ co-localized dots” value (opto-α-syn-MOs) of the same compound?
Answer: Its value is “consistent”.

Question: And the “pathologic pSer129-α-syn immunoreactivity in TH-positive neurons of the SN (IHC)” value (α-syn PFF injected mice [3]; long-term oral, 10 mg/kg)?
Answer: Its value is “significantly rescued”.

Question: What about the “number of TH- and Nissl-positive stained DA neurons in SNpc (stereological counting)” value (α-syn PFF injected mice [3]; oral, 10 mg/kg) of the same compound?
Answer: The value was “recovered”.

Question: And the “protein levels of TH in ventral midbrain and striatum” value (α-syn PFF injected mice [3]; oral, 10 mg/kg)?
Answer: Its value is “rescued”.

Question: What about the “striatal TH-positive fiber density (IHC)” value (α-syn PFF injected mice [3]; oral, 10 mg/kg) of the same compound?
Answer: Its value is “rescued”.

Question: And the endpoint body mass (α-syn PFF injected mice [3]; oral, 6 months, 2 mg/kg or 10 mg/kg, all groups)?
Answer: Its endpoint body mass is “No endpoint body mass differences”.

Question: And the “time spent, number of entries in the far zone of the open arm of the EPM” value (α-syn PFF injected mice [3]; oral, 6 months, 10 mg/kg)?
Answer: Its value is “significantly restored”.

Question: What about the “time spent, number of entries, travelled distance in the center zone of the OFT” value (α-syn PFF injected mice [3]; oral, 6 months, 10 mg/kg) of the same compound?
Answer: Its value is “significantly restored”.

Question: What about the “contextual or cued fear conditioning: total freezing time and freezing episode” value (α-syn PFF injected mice [3]; [6]) of the same compound?
Answer: The value was “recovered”.

Question: And the “fore- and hind-limb grip strength” value (α-syn PFF injected mice [3]; [6])?
Answer: Its value is “dramatically recovered”.

Question: What about the “latency to fall from the rotarod test” value (α-syn PFF injected mice [3]; [6]) of the same compound?
Answer: Its value is “dramatically recovered”.

Question: And the “levels of pS129-α-syn in the TX-insoluble fraction of ventral midbrain (WB)” value (α-syn PFF injected mice [3]; oral, both 2 mg/kg and 10 mg/kg)?
Answer: Its value is “significantly reduced”.

Question: What about the “pathologic pS129-α-syn immunoreactivity in TH neurons of the ventral midbrain” value (α-syn PFF injected mice [4]) of the same compound?
Answer: The value was “significantly reduced”.

Question: What about the “all three forms of p-Tau (AT8, AT180, Tau-217)” value [5] of the same compound?
Answer: Its value is “significantly downregulated”.
